The values below come from US20260098030A1, “NEGATIVE ALLOSTERIC MODULATORS OF METABOTROPIC GLUTAMATE RECEPTOR 2” (Vanderbilt University, priority 2022, published 2026).

T2 sequence (P31421 19-872): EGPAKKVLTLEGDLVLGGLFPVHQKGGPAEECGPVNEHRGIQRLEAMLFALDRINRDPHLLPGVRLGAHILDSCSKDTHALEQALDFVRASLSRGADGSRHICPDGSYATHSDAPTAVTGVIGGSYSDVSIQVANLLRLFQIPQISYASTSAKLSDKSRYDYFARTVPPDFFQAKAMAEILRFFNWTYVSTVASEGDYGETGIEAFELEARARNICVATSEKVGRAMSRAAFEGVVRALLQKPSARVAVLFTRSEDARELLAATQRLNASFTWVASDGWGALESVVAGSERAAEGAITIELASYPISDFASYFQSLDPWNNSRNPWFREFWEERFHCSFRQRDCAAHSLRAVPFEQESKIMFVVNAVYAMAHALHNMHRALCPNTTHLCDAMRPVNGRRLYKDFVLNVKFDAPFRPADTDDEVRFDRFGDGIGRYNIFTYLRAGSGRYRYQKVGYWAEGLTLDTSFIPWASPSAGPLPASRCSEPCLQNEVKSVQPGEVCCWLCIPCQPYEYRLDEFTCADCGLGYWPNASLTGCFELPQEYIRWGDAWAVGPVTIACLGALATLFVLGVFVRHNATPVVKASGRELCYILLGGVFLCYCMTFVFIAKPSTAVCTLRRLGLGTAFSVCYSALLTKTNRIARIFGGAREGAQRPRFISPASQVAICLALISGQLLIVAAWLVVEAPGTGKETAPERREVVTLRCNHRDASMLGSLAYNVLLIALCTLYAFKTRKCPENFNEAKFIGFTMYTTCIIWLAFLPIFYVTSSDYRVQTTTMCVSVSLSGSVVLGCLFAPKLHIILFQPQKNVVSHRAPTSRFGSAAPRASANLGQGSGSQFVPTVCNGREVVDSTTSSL
T1 sequence (Q14416 19-872): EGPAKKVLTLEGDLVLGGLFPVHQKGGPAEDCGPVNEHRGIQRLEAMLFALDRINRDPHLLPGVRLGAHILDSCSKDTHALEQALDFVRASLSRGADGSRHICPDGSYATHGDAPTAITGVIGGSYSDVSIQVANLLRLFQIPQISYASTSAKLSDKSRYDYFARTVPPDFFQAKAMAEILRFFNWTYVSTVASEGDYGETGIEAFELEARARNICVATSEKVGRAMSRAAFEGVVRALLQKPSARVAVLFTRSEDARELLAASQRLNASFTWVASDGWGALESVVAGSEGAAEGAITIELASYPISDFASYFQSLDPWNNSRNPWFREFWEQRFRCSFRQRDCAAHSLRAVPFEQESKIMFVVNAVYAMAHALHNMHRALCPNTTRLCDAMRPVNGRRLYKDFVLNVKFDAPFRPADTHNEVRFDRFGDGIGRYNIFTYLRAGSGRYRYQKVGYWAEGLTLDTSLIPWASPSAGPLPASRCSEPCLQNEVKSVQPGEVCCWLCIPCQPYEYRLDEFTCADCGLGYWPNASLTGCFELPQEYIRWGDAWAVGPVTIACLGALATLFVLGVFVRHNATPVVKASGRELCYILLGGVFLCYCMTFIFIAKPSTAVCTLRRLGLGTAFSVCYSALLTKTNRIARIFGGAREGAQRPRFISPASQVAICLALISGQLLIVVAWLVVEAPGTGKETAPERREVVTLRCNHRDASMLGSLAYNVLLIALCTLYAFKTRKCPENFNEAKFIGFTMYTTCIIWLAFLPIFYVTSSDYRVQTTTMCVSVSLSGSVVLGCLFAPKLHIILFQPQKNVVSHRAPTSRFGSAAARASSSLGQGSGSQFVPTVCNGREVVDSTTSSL

The first assay has as its target T1, human mGlu2 (Homo sapiens, UniProt Q14416).
T1 construct: expressed in transfected cells; host or cells: HEK-293 cells stably co-expressing GIRK channels
In words: mGlu GIRK cell-based thallium flux assay, human mGlu2. The following applies: HEK-293 cells co-expressing human mGlu2 and GIRK, EC80 glutamate. As for the experimental part: Human embryonic kidney (HEK-293) cell lines stably co-expressing human or rat mGlu2 and G protein-coupled inwardly rectifying potassium (GIRK) channels, or human mGlu3 and GIRK, were used for in vitro evaluation of compound activity in thallium flux assay using a fluorescent thallium indicator dye.
The day before the assay, GIRK cells co-expressing human mGlu3, human or rat mGlu2, as described above, were plated in black-walled, clear-bottomed, amine-coated 384-well plates at a density of 15,000 cells/20 μL/well in the assay medium (glutamine-depleted basal DMEM supplemented with 10% dialyzed FBS, 20 mM HEPES, 1 mM sodium pyruvate). Cells were incubated at 37° C. in the presence of 5% CO2. The next day, assay buffer (Hanks balanced salt solution, 20 mM HEPES, 4.16 mM sodium bicarbonate, pH 7.2) was prepared to dilute compounds and Thallos AM fluorescent dye solution. The 2× Thallos dye solution (final concentration 0.34 μM to the cells) was prepared by mixing the dye stock (2.97 mM in DMSO) to 1:1 with 10% pluronic acid before adding to the assay buffer. Cells were washed with assay buffer using a microplate washer to remove the medium, resulting in 20 μL of buffer remaining in each well. Immediately, 20 μL of 2× Thallos dye solution was added to cells, and incubated for one hour at 25° C. During the cell dye loading incubation period, a 10-point concentration serial dilution of compound was created from a 10 mM DMSO compound stock by performing a 1:3 serial dilution in DMSO using the Bravo liquid handler. The 2× compound plate was generated by transferring 0.24 μL of the diluted compound in each well to a daughter plate using an Echo acoustic liquid handler. This is further diluted in 40 μL assay buffer, resulting in a range from 30 μM to 1.5 nM final concentration in the assay. The agonist plate (5×) was prepared to include EC80 glutamate concentration (a concentration to elicit 80% of a maximally effective glutamate concentration) in thallium buffer (125 mM […], 1 mM magnesium sulfate, 1.8 mM calcium sulfate, 5 mM glucose, 10 mM HEPES, pH 7.2, 12.5 mM thallium sulfate).
After dye-loading, cell plates were washed with assay buffer to remove excess extracellular dye using a microplate washer, resulting in 20 μL of buffer remaining in each well. After a ten-minute equilibration period, cell, compound and agonist plates were loaded into a Hamamatsu μCell kinetic imaging plate reader equipped with liquid handler to monitor fluorescence changes at 480 nm excitation and 540 nm emission settings. Briefly, after collection of baseline fluorescence, 20 μL of compound was added and incubated for two minutes and twenty seconds. This is immediately followed by adding 10 μL of glutamate-thallium buffer to the wells containing compound. The fluorescent signal was monitored an additional 2.5 minutes after the glutamate addition. Multiple reference wells containing no compound received either no glutamate (for a baseline reference), EC80 glutamate, or ECmax glutamate (for normalization to maximum response). Fluorescence was measured throughout the experiment at a frequency of 1 measurement per every 2 seconds before the glutamate addition and a frequency of 1 measurement per every 1 second after the glutamate addition. Each compound concentration series occurred one time in each plate, and replicates from two or three plates were used in each experimental run. Thallium solutions were handled and disposed of according to guidelines from the Vanderbilt University Chemical Safety department.
Data were normalized using a static ratio function (F/F0) by dividing every fluorescent measurement by the initial fluorescent value for the corresponding well. The increase in signal resulting from the glutamate/thallium addition of the second add was measured by determining the slope from 3 seconds to 13 seconds after the addition. […]
Consider `CC(C)NC(=O)c1cccc(-c2cc3c(cc2-c2ccc(F)cc2F)C(=O)NC3)c1` [Compound 118, 3-(6-(2,4-difluorophenyl)-1-oxoisoindolin-5-yl)-N-isopropylbenzamide], for which half-maximal inhibition (IC50) required 1.99 µM. With `Cc1ccc(C#N)cc1-c1cc2c(cc1-c1cccc(C#N)c1)CNC2=O` [Compound 188, 3-(6-(3-cyanophenyl)-3-oxoisoindolin-5-yl)-4-methylbenzonitrilc], the half-inhibitory concentration (IC50) (in general, the point on the concentration scale where inhibition reaches its midpoint) is more than 10 µM.

`N#Cc1cccc(-c2cc3c(cc2-c2ccc(F)c(F)c2)C(=O)NC3)c1` [Compound 158, 3-(6-(3,4-difluorophenyl)-1-oxoisoindolin-5-yl)benzonitrile] showed an IC50 of 3.73 µM.

As for `N#Cc1ccccc1-c1cc2c(cc1-c1ccc(F)cc1F)C(=O)NC2` [Compound 124, 2-(6-(2,4-difluorophenyl)-1-oxoisoindolin-5-yl)benzonitrile], the IC50 was determined as 0.496 µM. The compound `COc1ccc(F)cc1-c1cc2c(cc1-c1cccc(C#N)c1)CNC2=O` [Compound 186, 3-(6-(5-fluoro-2-methoxyphenyl)-1-oxoisoindolin-5-yl)benzonitrile] showed an IC50 of more than 10 µM. Regarding `Cn1cc(S(=O)(=O)Nc2ccccc2-c2cc3c(cc2-c2ccc(F)cc2F)C(=O)NC3)cn1` [Compound 165, N-(2-(6-(2,4-difluorophenyl)-1-oxoisoindolin-5-yl)phenyl)-1-methyl-1H-pyrazole-4-sulfonamide], the midpoint of inhibition, the IC50, lay at 0.637 µM.

`[2H]C([2H])(c1cc2c(cc1-c1ccc(F)cc1F)C(=O)NC2)C([2H])([2H])c1ccnn1C` [Compound A6, 6-(2,4-difluorophenyl)-5-(2-(1-methyl-1H-pyrazol-5-yl)ethyl-1,1,2,2-d4)isoindolin-1-one] displayed an IC50 of 0.287 µM. `N#Cc1cccc(-c2cc3c(cc2-c2ccc(F)c(F)c2F)C(=O)NC3)c1` [Compound 139, 3-(1-oxo-6-(2,3,4-trifluorophenyl)isoindolin-5-yl)benzonitrile]: the midpoint of inhibition, the IC50, lay at 0.728 µM.

`[2H]C([2H])([2H])n1nncc1-c1cccc(-c2cc3c(cc2-c2ccc(F)cc2F)C(=O)NC3)c1` [Compound 152, 6-(2,4-difluorophenyl)-5-(3-(1-(methyl-d3)-1H-1,2,3-triazol-5-yl)phenyl)isoindolin-1-one] registered an IC50 of 0.693 µM.

`CCn1cc(-c2cc3c(cc2-c2ccc(F)cc2F)C(=O)NC3)cn1` [Compound 134, 6-(2,4-difluorophenyl)-5-(1-ethyl-1H-pyrazol-4-yl)isoindolin-1-one] came in with an IC50 of 2.35 µM. Turning to `O=C1NCc2cc(-c3cnn(CC(F)(F)F)c3)c(-c3ccc(F)cc3F)cc21` [Compound 131, 6-(2,4-difluorophenyl)-5-(1-(2,2,2-trifluoroethyl)-1H-pyrazol-4-yl)isoindolin-1-one], the IC50 stood at 0.366 µM.

`N#Cc1cccc(-c2cc3c(cc2-c2ccc(F)cc2C#N)C(=O)NC3)c1` [Compound 141, 2-(6-(3-cyanophenyl)-3-oxoisoindolin-5-yl)-5-fluorobenzonitrile]: the IC50 stood at 0.22 µM. `COc1ccc(F)c(-c2cc3c(cc2-c2cccc(C#N)c2)CNC3=O)c1` [Compound 170, 3-(6-(2-fluoro-5-methoxyphenyl)-1-oxoisoindolin-5-yl)benzonitrile] registered an IC50 of more than 10 µM.

Regarding `O=C1NCc2cc(-c3cccc4c3OCC4)c(-c3ccc(F)cc3F)cc21` [Compound 149, 6-(2,4-difluorophenyl)-5-(2,3-dihydrobenzofuran-7-yl)isoindolin-1-one], the IC50 worked out at 0.532 µM. On to `CS(=O)(=O)Nc1cccc(-c2cc3c(cc2-c2ccc(F)cc2F)C(=O)NC3)c1` [Compound 116, N-(3-(6-(2,4-difluorophenyl)-1-oxoisoindolin-5-yl)phenyl)methanesulfonamide], for which the IC50 was 0.931 µM. `[2H]C([2H])(C)n1nncc1-c1cccc(-c2cc3c(cc2-c2ccc(F)cc2F)C(=O)NC3)c1` [Compound 153, 6-(2,4-difluorophenyl)-5-(3-(1-(ethyl-1,1-d2)-1H-1,2,3-triazol-5-yl)phenyl)isoindolin-1-one] gave an IC50 of 0.727 µM. Take `N#Cc1cccc(-c2cc3c(cc2-c2c(F)cc(F)cc2F)C(=O)NC3)c1` [Compound 160, 3-(1-oxo-6-(2,4,6-trifluorophenyl)isoindolin-5-yl)benzonitrile]: it took 0.218 µM to reach half-maximal inhibition (IC50). `O=C1NCc2cc(-c3cnn(CCN4CCOCC4)c3)c(-c3ccc(F)cc3F)cc21` [Compound 154, 6-(2,4-difluorophenyl)-5-(1-(2-morpholinoethyl)-1H-pyrazol-4-yl)isoindolin-1-one] came in with an IC50 of more than 10 µM.

`CS(=O)(=O)c1cccc(-c2cc3c(cc2-c2ccc(F)cc2F)C(=O)NC3)c1` [Compound 122, 6-(2,4-difluorophenyl)-5-(3-(methylsulfonyl)phenyl)isoindolin-1-one] displayed an IC50 of 1.29 µM. In turn, `N#Cc1cccc(-c2cc3c(cc2-c2ccc(C#N)c(F)c2)C(=O)NC3)c1` [Compound 167, 4-(6-(3-cyanophenyl)-3-oxoisoindolin-5-yl)-2-fluorobenzonitrile] yielded an IC50 of more than 10 µM. As for `Cc1ccc(-c2cc3c(cc2-c2cccc(C#N)c2)CNC3=O)c(C)c1` [Compound 161, 3-(6-(2,4-dimethylphenyl)-1-oxoisoindolin-5-yl)benzonitrile], 4.59 µM corresponded to half-maximal inhibition (IC50). Still for that read-out and setting: with `Cc1cc(F)ccc1-c1cc2c(cc1-c1cccc(C#N)c1)CNC2=O` [Compound 143, 3-(6-(4-fluoro-2-methylphenyl)-1-oxoisoindolin-5-yl)benzonitrile] the figure was 1.67 µM; with `CN1CCN(c2ccccc2-c2cc3c(cc2-c2ccc(F)cc2F)C(=O)NC3)CC1` [Compound 150, 6-(2,4-difluorophenyl)-5-(2-(4-methylpiperazin-1-yl)phenyl)isoindolin-1-one], more than 10 µM; with `O=C1NCc2cc(CCc3cncnc3)c(-c3ccc(F)cc3F)cc21` [Compound A2, 6-(2,4-difluorophenyl)-5-(2-(pyrimidin-5-yl)ethyl)isoindolin-1-one], 0.667 µM. Same read-out and setting: with `O=C1NCc2cc(-c3ccnn3C3CCCCO3)c(-c3ccc(F)cc3F)cc21` (stereo not drawn) [Compound 147, 6-(2,4-difluorophenyl)-5-(1-(tetrahydro-2H-pyran-2-yl)-1H-pyrazol-5-yl)isoindolin-1-one] the figure was 5.91 µM.

A further assay addresses T2, rat mGlu2 (Rattus norvegicus, UniProt P31421).
T2 construct: expressed in transfected cells; host or cells: HEK-293 cells stably co-expressing GIRK channels
In words: mGlu GIRK cell-based thallium flux assay, rat mGlu2. The following applies: HEK-293 cells co-expressing rat mGlu2 and GIRK, EC80 glutamate. Summed up: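 HEK-293 cells stably co-expressing GIRK with human mGlu3, human mGlu2 or rat mGlu2 were loaded 1 h at 25° C with Thallos dye, then given compound (30 μM to 1.5 nM final, 10-point) for 2 min 20 s before EC80 glutamate plus thallium. Baseline-corrected fluorescence slope, normalized to ECmax glutamate, fitted to 4-parameter logistic for IC50.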
`Cc1nc2cc(-c3cc4c(cc3-c3ccc(F)cc3)C(=O)NC4)ccc2[nH]1` [Compound 10, 6-(4-fluorophenyl)-5-(2-methyl-1H-benzo[d]imidazol-5-yl)isoindolin-1-one]: the IC50 was more than 10 µM. `N#Cc1cc(-c2cc3c(cc2-c2ccc(F)cc2F)C(=O)NC3)ccc1F` [Compound 93, 5-(6-(2,4-difluorophenyl)-1-oxoisoindolin-5-yl)-2-fluorobenzonitrile] returned an IC50 of 1.5 µM. Turning to `O=C1NCc2cc(-c3ccc4[nH]ccc4c3)c(-c3ccc(F)cc3)cc21` [Compound 49, 6-(4-fluorophenyl)-5-(1H-indol-5-yl)isoindolin-1-one], the IC50 was more than 10 µM. For the compound `O=C1NCc2cc(-c3cnc4[nH]ccc4c3)c(-c3ccc(F)cc3)cc21` [Compound 38, 6-(4-fluorophenyl)-5-(1H-pyrrolo[2,3-b]pyridin-5-yl)isoindolin-1-one], the IC50 is 1.96 µM.

Take `O=C1NCc2cc(-c3cccnc3F)c(-c3ccc(F)cc3F)cc21` [Compound 72, 6-(2,4-difluorophenyl)-5-(2-fluoropyridin-3-yl)isoindolin-1-one]: 0.999 µM corresponded to half-maximal inhibition (IC50).
